# According to patent US20030036111A1, “Mitochondrial protein” (priority 2001, published 2003):
# Tests used:
# Assay type in all cases: biochemical
# [1] = target: T1, human DNC (mitochondrial deoxynucleotide carrier) (Homo sapiens, UniProt Q9HC21); assay: Dependence of DNC activity ([α-35S]dATP uptake) on internal substrate; conditions: internal substrate 10 mM; 2 min
# T1 construct: Amino acids are numbered from 1-320; made in house; host or cells: E. coli BL21(DE3), pET21b; inclusion bodies solubilized in sarkosyl, Ni-NTA purified
# T1 sequence (Q9HC21 2-320 limits assumed): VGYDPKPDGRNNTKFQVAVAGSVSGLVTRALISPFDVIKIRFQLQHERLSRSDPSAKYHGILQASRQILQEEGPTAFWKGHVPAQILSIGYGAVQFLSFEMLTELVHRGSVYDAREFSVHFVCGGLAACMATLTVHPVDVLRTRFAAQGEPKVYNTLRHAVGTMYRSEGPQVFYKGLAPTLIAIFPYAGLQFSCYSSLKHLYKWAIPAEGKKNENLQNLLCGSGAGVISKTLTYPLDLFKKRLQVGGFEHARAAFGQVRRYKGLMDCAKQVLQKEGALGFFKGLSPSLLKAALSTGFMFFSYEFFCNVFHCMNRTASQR
# Protocol: FIG. 3. Time course of dATP/ADP exchange and substrate specificity of human DNC. (a) Time course of [α-35 S]dATP/ADP exchange in proteoliposomes reconstituted with the recombinant DNC. [α-35 S]dATP (1 mM) was added to proteoliposomes containing 10 mM ADP (⋄) or 10 mM NaCl (∇). (b) Dependence of DNC activity on internal substrate. Proteoliposomes were preloaded internally with various substrates (concentration 10 mM). Trans-port was started by addition of […] [α-35 S]dATP and stopped after 2 min. The values are means 6 SD of at least three experiments. (c) Inhibition of the rate of [α-35 S]dATP uptake by external substrates. Proteoliposomes were preloaded internally with 10 mM ADP. […] External substrates (concentration 0.5 mM) were added together with [α-35 S]dATP. The extents of inhibition (%) from a representative experiment are reported.
# (§1) The recombinant protein in sarkosyl was reconstituted into liposomes in the presence of substrates (10). […] Transport was measured at 25° C. with internal and external pHs at 6.8. It was started by adding [α-35S]dATP or [^14C]-ADP and terminated after 2 min by addition of 100 mM of p-chloromercuribenzene sulfonate (10). Entrapped radioactivity was counted (10). The initial transport rate was calculated from the radioactivity taken up by proteoliposomes within 2 min (in the initial linear range). Other transport activities were assayed similarly (10).
# [2] = target: T1, human DNC (mitochondrial deoxynucleotide carrier); assay: Kinetics of [α-35S]dATP/ADP exchange in proteoliposomes reconstituted with recombinant DNC; conditions: for Km: external substrate, internal ADP or dADP 10 mM, read-out: transport affinity (Km)
# Protocol: FIG. 3. Time course of dATP/ADP exchange and substrate specificity of human DNC. (a) Time course of [α-35 S]dATP/ADP exchange in proteoliposomes reconstituted with the recombinant DNC. [α-35 S]dATP (1 mM) was added to proteoliposomes containing 10 mM ADP (⋄) or 10 mM NaCl (∇). (b) Dependence of DNC activity on internal substrate. Proteoliposomes were preloaded internally with various substrates (concentration 10 mM). Trans-port was started by addition of […] [α-35 S]dATP and stopped after 2 min. The values are means 6 SD of at least three experiments. (c) Inhibition of the rate of [α-35 S]dATP uptake by external substrates. Proteoliposomes were preloaded internally with 10 mM ADP. Transport was started by adding […] [α-35 S]dATP and stopped after 2 min. External substrates (concentration 0.5 mM) were added together with [α-35 S]dATP. The extents of inhibition (%) from a representative experiment are reported. The control value for uninhibited exchange was 0.45 mmol/min per gram of protein.
# The recombinant protein in sarkosyl was reconstituted into liposomes in the presence of substrates (10). Both cardiolipin (1.14 mg/ml) and EDTA (1 mM) were added. Transport was measured at 25° C. with internal and external pHs at 6.8. It was started by adding [α-35S]dATP or [^14C]-ADP and terminated after 2 min by addition of 100 mM of p-chloromercuribenzene sulfonate (10). Entrapped radioactivity was counted (10). The initial transport rate was calculated from the radioactivity taken up by proteoliposomes within 2 min (in the initial linear range). Other transport activities were assayed similarly (10). The amount of DNC incorporated into liposomes was measured as described (11) and varied between 15 and 20% of the protein added to the reconstitution mixture.
# [3] = target: T1, human DNC (mitochondrial deoxynucleotide carrier); assay: Homo-exchange of other carrier substrates in DNC proteoliposomes; conditions: internal concentration 10 mM; external concentration 1 mM
# Protocol: as §1
# [4] = target: T1, human DNC (mitochondrial deoxynucleotide carrier); assay: Inhibition of [α-35S]dATP uptake (dATP/ADP exchange) by external substrates and carrier inhibitors; conditions: external substrates 0.5 mM; internal 10 mM ADP; 125 mM [α-35 S]dATP; 2 min
# Protocol: FIG. 3. Time course of dATP/ADP exchange and substrate specificity of human DNC. (a) Time course of [α-35 S]dATP/ADP exchange in proteoliposomes reconstituted with the recombinant DNC. [α-35 S]dATP (1 mM) was added to proteoliposomes containing 10 mM ADP (⋄) or 10 mM NaCl (∇). (b) Dependence of DNC activity on internal substrate. Proteoliposomes were preloaded internally with various substrates (concentration 10 mM). Trans-port was started by addition of […] [α-35 S]dATP and stopped after 2 min. The values are means 6 SD of at least three experiments. (c) Inhibition of the rate of [α-35 S]dATP uptake by external substrates. Proteoliposomes were preloaded internally with 10 mM ADP. Transport was started by adding […] [α-35 S]dATP and stopped after 2 min. External substrates (concentration 0.5 mM) were added together with [α-35 S]dATP. The extents of inhibition (%) from a representative experiment are reported.
# The recombinant protein in sarkosyl was reconstituted into liposomes in the presence of substrates (10). Both cardiolipin (1.14 mg/ml) and EDTA (1 mM) were added. Transport was measured at 25° C. with internal and external pHs at 6.8. It was started by adding [α-35S]dATP or [^14C]-ADP and terminated after 2 min by addition of 100 mM of p-chloromercuribenzene sulfonate (10). Entrapped radioactivity was counted (10). The initial transport rate was calculated from the radioactivity taken up by proteoliposomes within 2 min (in the initial linear range). Other transport activities were assayed similarly (10).
Structure (SMILES),rate of [α-35 S]dATP uptake into proteoliposomes with internal substrate [1],homo-exchange catalysed by reconstituted DNC [3],further results
Nc1ncnc2c1ncn2[C@@H]1O[C@H](COP(=O)(O)OP(=O)(O)O)[C@@H](O)[C@H]1O [ADP],highest rates,–,Km [2]: 42.6 ± 4.7 µM
C[N+](C)(C)CC(O)CC(=O)[O-] (centres unmarked) [carnitine],virtually no activity,did not catalyse,–
Nc1ncnc2c1ncn2[C@H]1C[C@H](O)[C@@H](COP(=O)(O)OP(=O)(O)OP(=O)(O)O)O1 [dATP],–,–,"Km [2]: 106 ± 15 µM; rate constant of exchange of [α-35 S]dATP for dADP or ADP (first-order kinetics) ([2]; reconstituted human DNC, 25° C., pH 6.8): 0.02 min⁻¹"
O=C(O)/C=C/C(=O)O [fumarate],–,did not catalyse,–
N[C@@H](CCC(=O)O)C(=O)O [glutamate],–,did not catalyse,–
NC(=O)CC[C@H](N)C(=O)O [glutamine],–,did not catalyse,–
O=C(O)CC(O)C(=O)O (centres unmarked) [malate],–,did not catalyse,–
NCCC[C@H](N)C(=O)O [ornithine],–,did not catalyse,–
O=C(O)CCC(=O)C(=O)O [oxoglutarate],virtually no activity,did not catalyse,–
O=c1cc[nH]c(=O)[nH]1 [uracil],virtually no activity,–,effect of external substrate on [α-35 S]dATP/ADP exchange [4]: no effect
O=c1ccn([C@@H]2O[C@H](CO)[C@@H](O)[C@H]2O)c(=O)[nH]1 [uridine],virtually no activity,–,effect of external substrate on [α-35 S]dATP/ADP exchange [4]: no effect
